Reference: patent publication US4591552A, “Detection of hepatitis B surface antigen (or antibody to same) with labeled synthetic peptide” (priority 1982, dated 1986)

Test system: antiserum to the synthetic peptide
Assay: Competition immunoassay: binding to Staphylococci (protein A) of β-galactosidase-conjugated peptide 135-155 complexed with homologous antibodies
Set-up: species or system rabbit
Conditions: control antigens
Method: It is known that immunoglobulins of the IgG class attach to Staphylococci carrying protein A. If the immunoglobulins are bound to labeled antigens thus forming immune complexes, such (labeled) complexes attach to the Staphylococci. […] The above forms the basis of the following test:
250 μl of mixtures containing various unlabeled antigens, 1:125 diluted antiserum to the synthetic peptide (see Example 3 above), 1:8,000 diluted peptide-β-galactosidase conjugate (see Example 2 above) and 50 mg/ml of bovine serum albumin (BSA) were each incubated for 30 minutes at 37° C. and mixed with an equal volume of a 2.5% suspension of Staphylococci (Pansorbin, Calbiochem, LaJolla, Calif.). The bacteria were pelleted, washed with tris-buffered saline, and the adsorbed β-galactosidase corresponding to the enzyme-peptide conjugate was determined fluorometrically as described by Neurrath and Strick, J. Virol. Methods, supra. The fluorescence in the absence of unlabeled competing antigens was 900.

## synthetic insulin A chain: control antigen
  inhibitory effect on binding of β-galactosidase activity to the bacteria: did not have any inhibitory effect
